Results reported in patent US8461328B2, “Tricyclic heterocyclic compounds, compositions and methods of use thereof” (Genentech, Inc., priority 2010, dated 2013).

Assays:
Format in all cases: biochemical
TYK2 = target: T1, TYK2 (Homo sapiens, UniProt P29597); experiment: TYK2 inhibition (Table 4)
T1 construct: made in house; host or cells: SF9 insect cells (baculovirus)
T1 sequence (P29597 873-1187): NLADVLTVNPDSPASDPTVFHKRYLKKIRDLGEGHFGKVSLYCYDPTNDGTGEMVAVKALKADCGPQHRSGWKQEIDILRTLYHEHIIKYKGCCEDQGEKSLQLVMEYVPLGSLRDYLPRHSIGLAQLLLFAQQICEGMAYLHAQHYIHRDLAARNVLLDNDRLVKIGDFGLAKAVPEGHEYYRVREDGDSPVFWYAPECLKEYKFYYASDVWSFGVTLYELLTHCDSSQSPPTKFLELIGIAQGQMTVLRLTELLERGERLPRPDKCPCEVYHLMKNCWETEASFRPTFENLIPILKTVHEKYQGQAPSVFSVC

JAK2 = target: T2, JAK2 (Homo sapiens, UniProt O60674); experiment: JAK2 inhibition (Table 4); settings: read-out: JAK2 Ki
T2 construct: made in house; host or cells: SF9 insect cells (baculovirus)
T2 sequence (O60674 812-1132): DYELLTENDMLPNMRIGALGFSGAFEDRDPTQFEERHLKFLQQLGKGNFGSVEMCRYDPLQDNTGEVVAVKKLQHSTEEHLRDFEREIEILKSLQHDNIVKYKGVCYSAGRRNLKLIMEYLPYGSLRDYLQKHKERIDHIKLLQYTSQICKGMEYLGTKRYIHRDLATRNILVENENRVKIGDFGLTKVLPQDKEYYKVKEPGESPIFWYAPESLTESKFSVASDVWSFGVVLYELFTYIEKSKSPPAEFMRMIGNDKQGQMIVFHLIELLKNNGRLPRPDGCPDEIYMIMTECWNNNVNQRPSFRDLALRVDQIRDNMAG

JAK3 = target: T3, JAK3 (Homo sapiens, UniProt P52333); experiment: JAK3 inhibition (Table 4); settings: read-out: JAK3 Ki
T3 construct: made in house; host or cells: SF9 insect cells (baculovirus)
T3 sequence (P52333 783-1124): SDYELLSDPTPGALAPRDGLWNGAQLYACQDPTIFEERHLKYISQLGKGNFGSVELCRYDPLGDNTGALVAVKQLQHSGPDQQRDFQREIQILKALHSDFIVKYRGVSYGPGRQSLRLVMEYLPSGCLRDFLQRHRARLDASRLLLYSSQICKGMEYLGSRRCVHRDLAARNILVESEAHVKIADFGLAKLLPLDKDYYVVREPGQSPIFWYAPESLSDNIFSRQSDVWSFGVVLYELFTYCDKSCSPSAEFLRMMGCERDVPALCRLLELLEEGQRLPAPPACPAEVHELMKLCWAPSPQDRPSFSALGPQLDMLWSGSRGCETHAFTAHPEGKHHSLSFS

JAK1 = target: T4, JAK1 (Homo sapiens, UniProt P23458); experiment: JAK1 inhibition (Table 4); settings: read-out: JAK1 Ki
T4 construct: made in house; host or cells: SF9 insect cells (baculovirus)
T4 sequence (P23458 852-1154): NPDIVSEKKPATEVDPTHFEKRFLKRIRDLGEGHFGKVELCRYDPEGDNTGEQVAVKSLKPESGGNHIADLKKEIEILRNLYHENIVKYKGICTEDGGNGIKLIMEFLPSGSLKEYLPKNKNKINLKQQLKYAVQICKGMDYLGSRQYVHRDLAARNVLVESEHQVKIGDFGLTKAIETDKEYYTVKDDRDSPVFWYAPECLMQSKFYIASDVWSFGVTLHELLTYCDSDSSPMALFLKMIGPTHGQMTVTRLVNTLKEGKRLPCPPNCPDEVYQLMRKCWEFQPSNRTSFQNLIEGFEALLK

| Compound | Ki (TYK2) [nM] | Ki (JAK2) [nM] | Ki (JAK3) [nM] | Ki (JAK1) [nM] |
| --- | --- | --- | --- | --- |
| Cc1nc2cnc3[nH]ccc3c2n1C1CCC(F)(F)CC1 [Example 114, 1-(4,4-Difluoro-cyclohexyl)-2-methyl-1,6-dihydro-1,2,3,5,6-tetraaza-as-indacene] | 16.7 | 28.7 | 17 | 9.74 |
| CS(=O)(=O)N1CCC(n2c(CC3CCCC3)nc3cnc4[nH]ccc4c32)CC1 [Example 115, 2-Cyclopentylmethyl-1-(1-methanesulfonyl-piperidin-4-yl)-1,6-dihydro-1,2,3,5,6-tetraaza-as-indacene] | 153 | 744 | 547 | 320 |
| N#CCCN1CCC(n2c(CC3CCCC3)nc3cnc4[nH]ccc4c32)CC1 [Example 116, 3-[4-(2-Cyclopentylmethyl-6H-1,2,3,5,6-tetraaza-as-indacen-1-yl)-piperidin-1-yl]-propionitrile] | 322 | 76.9 | 58 | 19.7 |
| CCCS(=O)(=O)N1CCC(n2c(CC(N)=O)nc3cnc4[nH]ccc4c32)CC1 [Example 117, 2-{1-[1-(Propane-1-sulfonyl)-piperidin-4-yl]-1,6-dihydro-1,2,3,5,6-tetraaza-as-indacen-2-yl}-acetamide] | 1530 | 781 | 746 | 131 |
| CS(=O)(=O)NCCc1nc2cnc3[nH]ccc3c2n1C1CCN(CCC#N)CC1 [Example 118, N-(2-{1-[1-(2-Cyano-ethyl)-piperidin-4-yl]-1,6-dihydro-1,2,3,5,6-tetraaza-as-indacen-2-yl}-ethyl)-methanesulfonamide] | 63.1 | 12 | 23.6 | 1.94 |
| COCC(=O)N1CCC(n2c(Cc3conc3C)nc3cnc4[nH]ccc4c32)CC1 [Example 119, 2-Methoxy-1-{4-[2-(3-methyl-isoxazol-4-ylmethyl)-6H-1,2,3,5,6-tetraaza-as-indacen-1-yl]-piperidin-1-yl}-ethanone] | 1030 | 1310 | 1160 | 77.7 |
| CCCc1nc2cnc3[nH]ccc3c2n1C1CCN(CCC#N)CC1 [Example 120, 3-[4-(2-Propyl-6H-1,2,3,5,6-tetraaza-as-indacen-1-yl)-piperidin-1-yl]-propionitrile] | 82.1 | 10.3 | 11.2 | 5.56 |
| Cc1nc2cnc3[nH]ccc3c2n1C1CC2CCC1C2 (stereo not shown) [Example 121, 1-Bicyclo[2.2.1]hept-2-yl-2-methyl-1,6-dihydro-1,2,3,5,6-tetraaza-as-indacene] | 5.09 | 2.78 | 9.31 | 1.01 |
| Cc1nc2cnc3[nH]ccc3c2n1C1CC2CCC1C2 (stereo not shown) [Example 121a, 1-Bicyclo[2.2.1]hept-2-yl-2-methyl-1,6-dihydro-1,2,3,5,6-tetraaza-as-indacene] | 2.35 | 1.8 | 7.35 | 0.32 |
| CC(C)(C)OC(=O)N1CCC(n2cnc3cnc4[nH]ccc4c32)CC1 [Example 124, 4-(6H-1,2,3,5,6-Tetraaza-as-indacen-1-yl)-piperidine-1-carboxylic acid tert-butyl ester] | 225 | 33.2 | 845 | 24.5 |
| CC(C)(C)OC(=O)N1CCC(C)(n2cnc3cnc4[nH]ccc4c32)CC1 [Example 132, 4-Methyl-4-(6H-1,2,3,5,6-tetraaza-as-indacen-1-yl)-piperidine-1-carboxylic acid tert-butyl ester] | 696 | 193 | 1120 | 25.4 |
| O=C(N[C@H]1CC[C@H](n2cnc3cnc4[nH]ccc4c32)CC1)OC1CCNCC1 [Example 141, Trans[4-(6H-1,2,3,5,6-Tetraaza-as-indacen-1-yl)-cyclohexyl]-carbamic acid piperidin-4-yl ester] | 330 | 23.7 | 393 | 8.44 |
| O=C1CCC2(CCC(n3cnc4cnc5[nH]ccc5c43)CC2)N1 (stereo not shown) [Example 152, 8-(6H-1,2,3,5,6-Tetraaza-as-indacen-1-yl)-1-aza-spiro[4.5]decan-2-one] | 13.8 | 4.73 | 39.7 | 3.14 |
| CNC(=O)c1nc2cnc3[nH]ccc3c2n1C1CCN(Cc2ccccc2)CC1 [Example 159, 1-(1-Benzyl-piperidin-4-yl)-1,6-dihydro-1,2,3,5,6-tetraaza-as-indacene-2-carboxylic acid methylamide] | 2330 | 23.8 | 32.6 | 20.6 |
| N#CCCN1CCC(n2c(CC(=O)N3CCOCC3)nc3cnc4[nH]ccc4c32)CC1 [Example 160, 3-{4-[2-(2-Morpholin-4-yl-2-oxo-ethyl)-6H-1,2,3,5,6-tetraaza-as-indacen-1-yl]-piperidin-1-yl}-propionitrile] | 100 | 70.6 | 10.7 | 8.43 |
| N#Cc1nc2cnc3[nH]ccc3c2n1C1CCN(Cc2ccccc2)CC1 [Example 163, 1-(1-Benzyl-piperidin-4-yl)-1,6-dihydro-1,2,3,5,6-tetraaza-as-indacene-2-carbonitrile] | 607 | 10 | 28.1 | 11.2 |
| CC(C)NC(=O)[C@H]1CC[C@H](n2nnc3cnc4[nH]ccc4c32)CC1 [Example 165, Trans 4-(6H-1,2,3,5,6-Pentaaza-as-indacen-1-yl)-cyclohexanecarboxylic acid isopropylamide] | 550 | 177 | 802 | 48.9 |
| FC(F)(F)c1nc2cnc3[nH]ccc3c2n1C1CCN(Cc2ccccc2)CC1 [Example 167, 1-(1-Benzyl-piperidin-4-yl)-2-trifluoromethyl-1,6-dihydro-1,2,3,5,6-tetraaza-as-indacene] | 820 | 14.1 | 6.48 | 10.4 |

More lines, now with the values ahead:

| Ki (TYK2) [nM] | Ki (JAK2) [nM] | Ki (JAK3) [nM] | Ki (JAK1) [nM] | Compound |
| --- | --- | --- | --- | --- |
| 31 | 7.14 | 23.6 | 3.55 | CCc1nc2cnc3[nH]ccc3c2n1C1CCN(C(C)CC#N)CC1 (stereo not shown) [Example 123, 3-[4-(2-Ethyl-6H-1,2,3,5,6-tetraaza-as-indacen-1-yl)-piperidin-1-yl]-butyronitrile] |
| 78.8 | 17.4 | 88.1 | 5.16 | O=C(N[C@H]1CC[C@H](n2cnc3cnc4[nH]ccc4c32)CC1)OCC1CC1 [Example 140, Trans[4-(6H-1,2,3,5,6-Tetraaza-as-indacen-1-yl)-cyclohexyl]-carbamic acid cyclopropylmethyl ester] |
| 43.7 | 3.35 | 211 | 4.82 | CN([C@H]1CC[C@H](n2cnc3cnc4[nH]ccc4c32)CC1)S(C)(=O)=O [Example 142, Trans N-Methyl-N-[4-(6H-1,2,3,5,6-tetraaza-as-indacen-1-yl)-cyclohexyl]-methanesulfonamide] |
| 3160 | 382 | 3520 | 251 | CC(C)(C)OC(=O)N1CCC[C@H]1C(=O)N1CCC(n2cnc3cnc4[nH]ccc4c32)CC1 [Example 144, (S)-2-[4-(6H-1,2,3,5,6-Tetraaza-as-indacen-1-yl)-piperidine-1-carbonyl]-pyrrolidine-1-carboxylic acid tert-butyl ester] |
| 1730 | 190 | 2770 | 150 | N#CCN1CCC[C@H]1C(=O)N1CCC(n2cnc3cnc4[nH]ccc4c32)CC1 [Example 146, {(S)-2-[4-(6H-1,2,3,5,6-Tetraaza-as-indacen-1-yl)-piperidine-1-carbonyl]-pyrrolidin-1-yl}-acetonitrile] |
| 12.3 | 1.92 | 23.8 | 1.73 | CC(C)(O)[C@H]1CC[C@H](n2cnc3cnc4[nH]ccc4c32)CC1 [Example 148, Trans 2-[4-(6H-1,2,3,5,6-Tetraaza-as-indacen-1-yl)-cyclohexyl]-propan-2-ol] |
| 386 | 31.8 | 20.5 | 11.6 | CC(C)(C)OC(=O)N1CC(c2nc3cnc4[nH]ccc4c3n2C2CCN(Cc3ccccc3)CC2)C1 [Example 161, 3-[1-(1-Benzyl-piperidin-4-yl)-1,6-dihydro-1,2,3,5,6-tetraaza-as-indacen-2-yl]azetidine-1-carboxylic acid tert-butyl ester] |
| 677 | 23.1 | 46.8 | 7.45 | c1ccc(CN2CCC(n3c(C4CNC4)nc4cnc5[nH]ccc5c43)CC2)cc1 [Example 162, 2-Azetidin-3-yl-1-(1-benzyl-piperidin-4-yl)-1,6-dihydro-1,2,3,5,6-tetraaza-as-indacene] |
| 1020 | 151 | 255 | 145 | O=C([C@H]1CC[C@H](n2cnc3cnc4[nH]ccc4c32)CC1)N1CCOCC1 [Example 166, Trans Morpholin-4-yl-[4-(6H-1,2,3,5,6-tetraaza-as-indacen-1-yl)-cyclohexyl]-methanone] |
| 1390 | 312 | 330 | 25.3 | CC(C)c1nc2cnc3[nH]ccc3c2n1C1CCNCC1 [Example 168, 2-Isopropyl-1-piperidin-4-yl-1,6-dihydro-1,2,3,5,6-tetraaza-as-indacene] |
